The text below walks through data of patent publication US8735152B2, “Methods for inducing cell death in pluripotent stem cells and differentiated cells other than cardiac myocytes” (Daiichi Sankyo Company, Limited, priority 2009, dated 2014).

A short description of series [1]: Saccharide concentration and osmotic pressure of hypertonic solutions (measured values). It is filed as physicochemical. The protocol: When the hypertonic solution having an osmotic pressure of 370 mOsm/kg or higher is prepared by adding a saccharide to the culture medium, the method of the present invention is characterized in that the hypertonic solution contains the saccharide in 0.1-1 M (mol/L), preferably 0.1-0.6 M (mol/L). The relation between the concentration of saccharide (mol/L) and the osmotic pressure (mOsm/kg) can be approximated by a substantially straight line; a hypertonic solution containing 0.1 M saccharide corresponds to one having an osmotic pressure of approximately 370 mOsm/kg and a hypertonic solution containing 1 M saccharide corresponds to one having an osmotic pressure of approximately 1300-1600 mOsm/kg.
Hypertonic solutions were prepared using various saccharides and the relation between the saccharide concentration and the osmotic pressure is shown in the following table for typical saccharides.

Series [2] relates to human embryonic stem cell-derived embryoid bodies. The experiment in a line: Cell death inducing effect on residual stem cells in human embryonic stem cell-derived embryoid bodies and enrichment of cardiomyocytes. It is filed as cell-based. The settings on record: 0.45 M or 0.6 M. As to the method: After passaging, human embryonic stem cells were subjected to suspension culture in a culture medium [α-MEM (minimum essential medium) (SIGMA), supplemented with 10% FBS (EQUITEC BIO), 100 units/ml penicillin, and 50 μg/ml streptomycin (GIBCO)] to induce formation of embryoid bodies. At 14-18 days after the start of differentiation (the start of suspension culture), autonomously pulsating cells started to differentiate, which was confirmed in a separate step that they were cardiomyocytes.
The embryoid bodies still maintained an autonomously pulsating ability after the passage of 3 months from the start of differentiation. They were partially treated with 0.1% collagenase (Wortington) and 0.1% trypsin (DIFCO) to be dispersed as fine cell masses. The cell masses were divided into two groups; one group was treated with 0.45 M mannitol (approximately equivalent to 720 mOsm/kg) for 2 hours, and the other group (control) was not treated with mannitol but treated with the same amount of a solution having the physiological osmotic pressure, Ads buffer (116.4 mM NaCl, 5.4 mM KCl, 5.6 mM dextrose, 10.9 mM NaH2PO4, 405.7 μM MgSO4, 20 mM Hepes, pH 7.3) for 2 hours. After the treatment, both cell groups were subjected to adherent culture for 3 days in a DMEM solution supplemented with 10% fetal calf serum.
The mannitol-treated cells and the control cells were analyzed in accordance with the experimental procedure of Example 1 using a mouse anti-Oct-3/4 monoclonal antibody (No. 084720 of BD Transduction Laboratories) and a goat anti-Nkx 2.5 antibody (No. N-19 of Santacruz) as primary antibodies, for the expression of the Oct-3/4 protein which was both a marker of embryonic stem cells and an intranuclear transcription factor, and for the expression of the Nkx 2.5 protein which was both a cardiomyocyte marker and an intranuclear transcription factor, respectively. The results for the control group, one of the two divided samples, are shown in FIG. 10 and the results for the test group subjected to 2-hr treatment with mannitol are shown in FIG. 11. The upper panels of FIG. 10 show the results of cardiomyocytes and the lower panels show the results of embryonic stem cells.
The embryoid bodies still maintained an autonomously pulsating ability after the passage of 3 months from the start of differentiation. They were partially treated with 0.1% collagenase (Wortington) and 0.1% trypsin (DIFCO) to be dispersed as fine cell masses. The cell masses were divided into two groups; one group was treated with saccharides (sugar alcohols: sorbitol, xylitol, and glycerol; sugars: sucrose and glucose; betaines: trimethylglycine) for 12 hours in an amount of 0.45 M (approximately equivalent to 700-780 mOsm/kg) or 0.6 M (approximately equivalent to 850-1000 mOsm/kg), and the other group (control) was not treated with those saccharides but treated with the same amount of a solution having the physiological osmotic pressure, Ads buffer (116.4 mM NaCl, 5.4 mM KCl, 5.6 mM dextrose, 10.9 mM NaH2PO4, 405.7 μM MgSO4, 20 mM Hepes, pH 7.3) for 2 hours. After the treatment, both cell groups were cultured for 12 hours in a DMEM solution supplemented with 10% fetal calf serum.
Samples of differentiated cells derived from human embryonic stem cells, as treated with 0.45 M glycerol (approximately equivalent to 710 mOsm/kg) or 0.6 M glycerol (approximately equivalent to 870 mOsm/kg), were examined for their morphology under the culture conditions. […] The cell death inducing effect was noticeable when the cells were exposed to glycerol for 10 hours and longer (FIG. 14).

In series [3] the test system is human embryonic stem cells. The experiment in a line: Cell death inducing effect on human embryonic stem cells (TMRM FACS, 5-day adherent culture). It is filed as cell-based. The note with it: 0.45 M, 2 hours. As to the method: The human embryonic stem cells were obtained from Stem Cell Research Center, Institute for Frontier Medical Sciences, Kyoto University (ES cell center sponsored by the National Bio-Resource Project) (Suemori, H et al., Biochem. Biophys. Res. Commun., Vol. 345, 2006, pp. 926-932). The cells were cultured basically in accordance with the method described in this document. To be more specific, the human embryonic stem cells were cultured to maintain their undifferentiated state using mouse embryonic fibroblasts (MEF) that had been inactivated for growth by treatment with mitomycin C. The culture medium of F12/DMEM (1:1) (SIGMA; Product No. D6421), supplemented with 20% KO-SERUM (GIBCO), 1.6 mM L-glutamine, 0.1 mM non-essential amino acids (MEM), 0.1 mM β-mercaptoethanol (2-ME; Sigma), 100 IU/ml penicillin, 100 μg/ml streptomycin sulfate, and recombinant human basic fibroblast growth factor (bFGF; Reprotech) was used. Upon passaging, the cells were treated with 0.1% type III collagenase (Wortington) at 37° C. for 10 minutes to separate embryonic stem cell colonies. After passaging, the cells were dispersed with each other using TE (0.25% trypsin (GIBCO) and 1 mM EDTA) and in accordance with a published document (Watanabe, K. et al., Nat. Biotechnol., 2007, 25: 681-686, Epub 2007 May 27), 10 μM of a ROCK inhibitor (Y27632) was added to suppress cell death. At the same time, the mitochondria in the live cells were stained with 50 nM TMRM. Part of the stained cells were treated with an α-MEM culture medium containing 0.45 M mannitol (approximately equivalent to 720 mOsm/kg) for 2, 3 or 4 hours and three samples were prepared from these cells; the rest of the stained cells were treated with a mannitol-free α-MEM culture medium for 2 hours and a sample was prepared from these cells as a control. In the control, cells were aggregated with each other to make masses, so before FACS analysis, the treated groups and the control were given another treatment with trypsin and EDTA to disperse the cells. The cells treated with mannitol for 2, 3 or 4 hours and the control cells were analyzed by FACS for the level of mitochondrial membrane potential on the basis of the fluorescent intensity of TMRM to check the state of survival of the stem cells; the results are shown in FIG. 7. […] In addition, the TMRM-stained cells were photographed, both for the case of 2-h treatment with mannitol and for the control (FIG. 8)). […] Changes in the mitochondrial membrane potential were observed using the experimental technique of Example 5, provided that the human embryonic stem cells were treated not with mannitol, but with 0.45 M of various other saccharides (sugar alcohols: sorbitol and xylitol; sugars: sucrose and glucose; betaines: trimethylglycine) (approximately equivalent to 750-780 mOsm/kg) for 2 hours.

[4] abbreviates: saccharide concentration 0.45 M in culture medium.
Where [5] appears, read: saccharide concentration 0.6 M in culture medium.
[6] abbreviates: saccharide concentration 0.9 M in culture medium.

Each structure is given as a SMILES string.

For `OCC(O)CO` [glycerol], the Osmotic pressure in series [1] (setting [4]) is on record as approximately 710 mOsm/kg; in series [1] (saccharide concentration 0.45 M in culture medium, listed as Glycerol), 706 mOsm/kg; in series [1] (setting [5]), approximately 870 mOsm/kg; in series [1] (saccharide concentration 0.6 M in culture medium, listed as Glycerol) it was 869 mOsm/kg; in series [1] (setting [6]), 1232 mOsm/kg. Moreover, the “Exposure time at which the cell death inducing effect was noticeable” value in series [2] was not below 10 h. Further, the “State of differentiated cells other than cardiomyocytes (morphology)” value in series [2] was “almost all of the differentiated cells other than cardiomyocytes had been dead”.
For `OC[C@@H](O)[C@@H](O)[C@H](O)[C@@H](O)CO` [sorbitol], the Osmotic pressure came to 748 mOsm/kg in series [1] (setting [4]), 922 mOsm/kg in series [1] (setting [5]) and 1289 mOsm/kg in series [1] (setting [6]). In addition, the “Mitochondrial membrane potential (TMRM fluorescence, FACS)” value in series [3] is listed as “all of the cells treated with the above-mentioned saccharides for 2 hours had lost membrane potential”.
The like results for `OC[C@H]1O[C@@](CO)(O[C@H]2O[C@H](CO)[C@@H](O)[C@H](O)[C@H]2O)[C@@H](O)[C@@H]1O` [sucrose] were, in that order, 779 mOsm/kg, 988 mOsm/kg, 1496 mOsm/kg and “all of the cells treated with the above-mentioned saccharides for 2 hours had lost membrane potential”.
The like results for `C[N+](C)(C)CC(=O)[O-]` [trimethylglycine] were, in that order, 763 mOsm/kg, 965 mOsm/kg, 1421 mOsm/kg and “all of the cells treated with the above-mentioned saccharides for 2 hours had lost membrane potential”.
For `OC[C@@H](O)[C@H](O)[C@@H](O)CO` [xylitol] the same measures were 779 mOsm/kg, 940 mOsm/kg, 1230 mOsm/kg and “all of the cells treated with the above-mentioned saccharides for 2 hours had lost membrane potential”.
